“Also recorded” adds a separate entry of the source.
Assays:
[1] = test system: Human retinal endothelial cells (HREC); assay: Network formation assay in Matrigel, human retinal endothelial cells (HREC); assay type: cell-based; conditions: 1% FBS-RF6A medium, 20 ng/ml rhVEGF, 24 hours, approximate, read-out: ED50, inhibition of network formation of human retinal endothelial cells in Matrigel
Procedure: Evaluation of Efficacy of BOL-303213-X In Human Retinal Endothelial Cells (HREC) Using the Network Formation Assay in Matrigel.
Objective: This study was conducted to evaluate the ability of a novel tyrosine kinase inhibitor, BOL-303213-X, to prevent vascular endothelial cell network formation in an in vitro angiogenesis model—network formation assay in Matrigel.
Methods: Human retinal vascular endothelial cells were isolated and cultured from human donor eyes and characterized by Dio-Ac-LDL uptake. Cell network formation was evaluated after these cells were cultured in Matrigel in 1% FBS-RF6A medium with 20 ng/ml rhVEGF and various doses of BOL-303213-X (30, 60, 200, 600 and 1200 nM) for 24 hours. Cell isolates and cultures from three separated donors were used. The total cell network areas were computed by an image analysis software.

[2] = test system: human retinal endothelial cells; assay: Vascular endothelial cell proliferation (cell viability assay kit), human retinal endothelial cells; assay type: cell-based; conditions: dose-dependent
Procedure: (§1) Objective: The present study was conducted to evaluate the ability of a novel tyrosine kinase inhibitor, BOL-303213-X, to prevent vascular endothelial cell proliferation in vitro using human retinal, choroidal, and dermal microvascular endothelial cells, as well as bovine retinal endothelial cells. Inhibition of outgrowths in a human choroid explant assay was also used to evaluate BOL-303213-X activity in a more complex multi-cellular angiogenesis ex vivo model. Furthermore, caspase-3/7 and lactate dehydrogenase (LDH) activities were also determined following treatment of human retinal and choroidal endothelial cells with BOL-303213-X as a preliminary measure of cytotoxicity. Methods: Human retinal and choroidal vascular endothelial cells were isolated and cultured from human donor eyes. Human dermal microvascular endothelial cells and bovine retinal endothelial cells were purchased from commercial sources. Vascular endothelial cell proliferation was measured by comparing the number of viable cells using a commercial cell viability assay kit. Inhibition of choroid outgrowths was evaluated in a human explant assay. Caspase-3/7 and LDH activities were utilized to assess cytotoxicity.

[3] = test system: human choroidal endothelial cells; assay: Vascular endothelial cell proliferation (cell viability assay kit), human choroidal endothelial cells; assay type: cell-based; conditions: dose-dependent
Procedure: as §1

[4] = test system: human dermal microvascular endothelial cells; assay: Vascular endothelial cell proliferation (cell viability assay kit), human dermal microvascular endothelial cells; assay type: cell-based; conditions: dose-dependent
Procedure: as §1

[5] = test system: bovine retinal endothelial cells; assay: Vascular endothelial cell proliferation (cell viability assay kit), bovine retinal endothelial cells; assay type: cell-based; conditions: dose-dependent
Procedure: as §1

[6] = test system: human choroid explant outgrowths; assay: Human choroid explant outgrowth assay (ex vivo); assay type: cell-based; conditions: human choroidal outgrowth assay
Procedure: as §1

[7] = test system: human retinal endothelial cells; assay: Cytotoxicity (caspase-3/7 and LDH activities), confluent human retinal endothelial cells; assay type: cell-based; conditions: range of concentrations used for efficacy testing
Procedure: as §1

[8] = test system: human choroidal endothelial cells; assay: Cytotoxicity (caspase-3/7 and LDH activities), confluent human choroidal endothelial cells; assay type: cell-based; conditions: range of concentrations used for efficacy testing
Procedure: as §1

[9] = test system: rhVEGF165-induced blood-retinal barrier breakdown; assay: Blood-retinal barrier breakdown induced by rhVEGF165 in pigmented rabbits (vitreous fluorophotometry); assay type: in vivo
Procedure: (§2) To expand the efficacy observation of BOL-303213-X in non-ocular system, an ocular efficacy study was conducted in rabbits that included ocular observations to evaluate tolerance of intravitreal administration of BOL-303213-X in hydroxypropyl methylcellulose (HPMC). A rabbit model of blood-retinal barrier (BRB) breakdown induced by intravitreal administration of recombinant human vascular endothelial growth factor (rhVEGF) was used. This model mimics pathologic situations such as macular edema, in which VEGF contributes to increased retinal vascular permeability resulting in edema. In this study 30 μg BOL-303213-X in 50 μl of HPMC was given 3 or 5 days before the VEGF challenge with the evaluation of the BRB integrity also at 2 days after the VEGF challenge.
BOL-303213-X/HPMC Suspension: Evaluation of Efficacy in Pigmented Rabbits Using a Model of Blood-Retinal Barrier Breakdown Induced by VEGF.
Purpose: The aim of this study was to evaluate the efficacy of BOL-303213-X (30 μg) in hydroxypropyl methylcellulose (HPMC) suspension in pigmented rabbits using a model of blood-retinal barrier breakdown induced by rhVEGF 165.
(§3) Methods: Eighty four (84) pigmented rabbits were allocated into 8 groups: three groups were given an intravitreal injection (50 μl) of BOL-303213-X (30 μg) in HPMC, three groups were given an intravitreal injection of HPMC vehicle and two groups were given no treatment. The rhVEGF 165 challenge was performed three days after the treatment injection to three groups (BOL-303213-X-treated, vehicle-treated, and untreated). The rhVEGF 165 challenge was also performed at five days after the treatment injection to four groups (BOL-303213-X-treated, vehicle-treated (n=2), and untreated). One group served as control for the tolerability of BOL-303213-X injection. Breakdown of the blood-retinal barrier was evaluated 24 h (one vehicle-treated group) and 48 h (the other six groups) after rhVEGF 165 challenge by fluorescein leakage from retinal vasculature into the vitreous using non-invasive scanning ocular fluorophotometry. Assessment of tolerability was evaluated by slit-lamp examination, laser flare measurements (LFM) of anterior chamber using a laser flare meter, intraocular pressure (IOP) measurements using a pneumotonometer and vitreo-retinal fluorophotometry. These examinations were performed before injection, before the rhVEGF165 challenge and the day of euthanasia. Results: The general behavior of animals was not altered by the treatment. […] No relevant complications were found during the clinical follow-up.

[10] = Ocular tolerability in the rabbit VEGF efficacy study (slit-lamp, laser flare, IOP); assay type: in vivo
Procedure: as §2, §3

[11] = test system: laser-induced choroidal neovascularization; assay: Laser-induced choroidal neovascularization in cynomolgus monkeys (fluorescein angiography grading); assay type: in vivo, cynomolgus monkeys (Macaca fascicularis)
Description: BOL-303213-X/HPMC Suspension: Evaluation of Efficacy in Monkeys Using a Laser-Induced Choroidal Neovasuclarization Model.
Purpose: This study was done to qualitatively evaluate the potential inhibitory effect of BOL-303213-X on laser-induced choroidal neovascularization in cynomolgus monkeys when administered biweekly by intravitreal injection beginning at the time of laser treatment.
Methods: Eight cynomolgus monkeys (Macaca fascicularis) were used in this study. The animals were assigned to the study using a computerized procedure designed to achieve body weight balance with respect to groups. The animals were anesthetized with ketamine and xylazine and the eyes dilated with a mydriatic. The macula of both eyes of each animal received laser photocoagulation treatment using a 532 nm diode green laser and slit lamp delivery system and a plano fundus contact lens. This is a standard method for inducing choroidal neovascularization. Nine areas were symmetrically placed in the macula of each eye. The laser parameters included a 75 micron spot size, 0.1 second duration at power settings ranging from 400 to 750 mW. […] Fuorescein angiograms were evaluated according to the following grading system for evidence of excessive permeability (i.e. fluorescein leakage). […]

[12] = Ocular tolerability following a single intravitreal administration in pigmented rabbits; assay type: in vivo
Procedure: BOL-303213-X In HPMC Suspension. Evaluation of Ocular Tolerability Following a Single Intravitreal Administration in Pigmented Rabbits.
Purpose: The aims of this study were to determine the ocular tolerability and pharmacokinetics of BOL-303213-X in Hydroxy Propyl Methyl Cellulose (HPMC) suspension after a single intravitreal injection at 4 doses: 10, 15, 20 and 30 μg.
Methods: One hundred and two rabbits were allocated into four-dose groups (group 1: 10 μg, group 2: 15 μg, group 3: 20 μg and group 4: 30 μg of BOL-303213-X in HPMC suspension) and one control group (HPMC). Each group was divided in four time-points (15 min, Days 1, 3 and 5) except the control group (one time-point: Day 5). Each animal received an intravitreal injection of test article (50 μl) in the right eye. Tolerability was evaluated by slit lamp examination, anterior chamber inflammation (flare) by laser flare measurements (LFM), intraocular pressure measurements and integrity of the blood retinal barrier (BRB) by vitreous fluorophotometry. These examinations were performed before injection and, on Days 1, 3 and 5. Results: The general behavior of animals was not altered by the treatment. […] No relevant complications were found during the clinical follow-up. […] The blood-retinal barrier was not affected by the different injections. […] There was no difference in IOP between the BOL-303213-X injected and control eyes at any time points.

[13] = Tolerability of intravitreal BOL-303213-X in HPMC in cats; assay type: in vivo; conditions: intravitreal 10 μg in HPMC, statement also covers four pharmacokinetic studies, visible aggregates in vitreous in certain studies
[14] = 10-30 μg in HPMC, single intravitreal injection

Compound: CC(C)Cn1c2ccc(Nc3ncccn3)cc2c2c3c(c4c(c21)CCc1nn(C)cc1-4)C(=O)NC3 [BOL-303213-X]
- EC50 [1]: ~180 nM
- Inhibition of proliferation [2]: inhibited proliferation
- Inhibition of proliferation [3]: inhibited proliferation
- Inhibition of proliferation [4]: inhibited proliferation
- Inhibition of proliferation [5]: inhibited proliferation
- Inhibition of choroid outgrowths [6]: effective in inhibiting choroid outgrowths
- Caspase-3/7 activity [7]: no significant increase
- LDH activity [7]: no significant increase
- Caspase-3/7 activity [8]: no significant increase
- LDH activity [8]: no significant increase
- Effect on VEGF-induced retinal vascular permeability / blood-retinal barrier breakdown (in words) ([9]; 30 μg in 50 μl HPMC intravitreal, 3 days before VEGF challenge): significantly reduced; also recorded: effective at blocking
- Inhibition of vitreous fluorescein leakage vs rhVEGF165 plus HPMC vehicle ([9]; 30 μg in 50 μl HPMC intravitreal, 3 days before rhVEGF165 challenge, read 48 h after challenge, p=0.04): 52.7%
- Vitreous fluorescein leakage (mean±SD, n=12) ([9]; 30 μg in HPMC intravitreal, 3 days before rhVEGF165 challenge, read 48 h after challenge): 8,458.8±7,067.4
- Vitreous fluorescein leakage (mean±SD, n=12) ([9]; 30 μg in HPMC intravitreal, 5 days before rhVEGF165 challenge): 15,228.2±10,364.6
- Inhibition of vitreous fluorescein leakage vs vehicle ([9]; 30 μg in HPMC intravitreal, 5 days before rhVEGF165 challenge, trend, not statistically significant (p>0.05)): 57.7%
- Ocular tolerance observations ([10]; 30 μg in 50 μl HPMC intravitreal, except some eyes with blurred vitreous): no observed tolerance concerns
- Body weights of the animals ([10]; 30 μg in HPMC, intravitreal): within a normal range
- General behavior of animals ([10]; 30 μg in HPMC, intravitreal): not altered
- Toxicity by slit-lamp examination, laser flare and IOP measurements ([10]; 30 μg in HPMC, single intravitreal injection): no evidence of toxicity
- Overall safety conclusion ([10]; HPMC suspension at 30 μg-dose, normal pigmented rabbits): appeared to be safe
- Percent of grade IV lesions vs HPMC-vehicle contralateral eye ([11]; 45 μg in HPMC intravitreal after laser and two weeks post-laser, 2, 3 and 4 weeks post-laser): consistently lower
- Inhibition of choroidal neovascularization (in words) ([11]; 45 μg in HPMC suspension, injected after laser challenge): effective at inhibiting choroidal neovascularization
- Toxicity by clinical examination, laser flare and IOP measurements ([12]; 10, 15, 20, 30 μg in HPMC, single intravitreal injection 50 μl): no evidence of toxicity
- Clinical observation in the vitreous following the intravitreal injection ([12]; 10-30 μg in HPMC suspension): small aggregate of drug precipitates
- Blood-retinal barrier integrity (vitreous fluorophotometry) [12, 14]: not affected
- Body weights of the animals [12, 14]: within a normal range
- General behavior of animals [12, 14]: not altered
- Anterior chamber inflammation ([12]; 1 day after the injection, not dose-dependent): transient anterior inflammation
- Animals with some inflammatory cells in the vitreous cavity at fundus examination ([12]; Day 5, at least 1 animal of each group (control group included)): 9 rabbits out of 30
- Overall safety conclusion ([12]; HPMC suspension at 10, 15, 20 and 30 μg-doses, normal pigmented rabbit): appeared to be safe
- IOP, injected vs control eyes ([12]; any time points): no difference
- Ocular tolerability [13]: no major ocular tolerance concerns
